Source: US7022736B2, “Enzyme inhibitors” (Istituto Di Ricerche Di Biologia Molecolare P Angeletti SpA, priority 1998, dated 2006)

These compounds were tested against T1, HCV RdRp (NS5B RNA-dependent RNA polymerase) (Hepatitis C virus genotype 1b, UniProt P26663) (assay: Inhibition of hepatitis C virus RdRp (poly(A)/oligo(U), [3H]UTP incorporation)). Details: Tables I-VIII; 20 nM NS5B, 1 hour at 22° C.; read-out: IC 50 (μM), HCV-polymerase.
T1 construct: The HCV NS5B protein is the viral RdRp; made in house; host or cells: insect cells infected with recombinant baculovirus
Format: biochemical
Method: In initial tests, the compounds were tested to see if they were effective as inhibitors of the RNA-dependent RNA polymerase (RdRp) of hepatitis C virus (HCV). The HCV NS5B protein is the viral RdRp; compounds capable of interfering with the activity of this enzyme are thus expected to block viral replication.
Test for Inhibition of Hepatatis C Virus RdRp
WO96/37619 describes the production of recombinant HCV RdRp from insect cells infected with recombinant baculovirus encoding the enzyme. […] The reference describes a polymerisation assay using poly (A) as a template and oligo (U) as a primer. Incorporation of tritiated UTP is quantified by measuring acid-insoluble radioactivity. The present inventors have employed this assay to screen the various compounds described above as inhibitors of HCV RdRp and other virally encoded polymerases.
Incorporation of radioactive UMP was measured as follows. The standard reaction (100 μl) was carried out in a buffer containing 20 mM tris/HCl pH 7.5, 5 mM MgCl2, 1 mM DTT, 50 mM NaCl, 1 mM EDTA, 2 OU Rnasin (Promega), 0.05% Triton X-100, 1 μCi[^3H] UTP (40 Ci/mmol,NEN), 10 μM UTP and 10 μg/ml poly (A). Oligo (U)12 (1 μg/ml, Genset) was added as a primer. The final NSSB enzyme concentration was 20 nM. After 1 hour incubation at 22° C. the reaction was stopped by adding 100 μl of 20% TCA and applying samples to DE81 filters. The filters were washed thoroughly with 5% TCA containing 1M Na2HPO4/NaH2PO4, pH 7.0, rinsed with water and then ethanol, air dried, and the filter-bound radioactivity was measured in the scintillation counter. By carrying out the reaction in the presence of various concentrations of each of the compounds set out above it was possible to determine IC50 values for each compound with the formula: % residual activity=100/(1+[I]/IC50)^s where [I] is the inhibitor concentration and “s” is the slope of the inhibition curve. Test for Inhibition of Hepatitis B Virus Polymerase

T1 sequence (P26663 2420-3010): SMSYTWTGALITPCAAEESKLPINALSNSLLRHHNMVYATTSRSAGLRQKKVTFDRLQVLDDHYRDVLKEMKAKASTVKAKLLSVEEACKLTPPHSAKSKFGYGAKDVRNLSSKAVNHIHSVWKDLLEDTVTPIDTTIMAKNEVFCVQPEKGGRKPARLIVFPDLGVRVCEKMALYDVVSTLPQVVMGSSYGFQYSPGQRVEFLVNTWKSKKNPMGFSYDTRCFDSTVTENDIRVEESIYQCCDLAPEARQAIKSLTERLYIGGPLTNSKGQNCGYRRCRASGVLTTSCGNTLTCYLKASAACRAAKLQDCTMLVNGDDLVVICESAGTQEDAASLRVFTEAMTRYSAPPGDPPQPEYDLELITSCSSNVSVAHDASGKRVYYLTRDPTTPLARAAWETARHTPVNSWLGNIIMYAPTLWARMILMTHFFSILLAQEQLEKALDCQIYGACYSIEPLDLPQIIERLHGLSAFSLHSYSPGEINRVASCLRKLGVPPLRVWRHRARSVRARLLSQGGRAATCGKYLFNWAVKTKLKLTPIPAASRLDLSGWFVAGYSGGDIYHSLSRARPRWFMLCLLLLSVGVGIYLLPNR

IC50 | SMILES
7 µM | O=C(O)C(O)=CC(=O)c1cccc(NS(=O)(=O)c2cccs2)c1 [Example 101]
1.5 µM | O=C(O)C(O)=CC(=O)c1cccc(NS(=O)(=O)c2ccc(Cl)s2)c1 [Example 102]
6 µM | O=C(O)C(O)=CC(=O)c1cccc(OCc2cc(-c3ccccc3)on2)c1 [Example 103]
50 µM | O=C(O)C(O)=CC(=O)c1cccc(OCc2cccc(Oc3ccccc3)c2)c1 [Example 104]
13.7 µM | O=C(O)C(O)=CC(=O)c1cccc(OCc2cccc[n+]2[O-])c1 [Example 105]
6.8 µM | Cc1cc(COc2cccc(C(=O)C=C(O)C(=O)O)c2)no1 [Example 106]
6.9 µM | O=C(O)C(O)=CC(=O)c1cccc(NS(=O)(=O)Cc2ccccc2)c1 [Example 108]
0.17 µM | N#Cc1c(Cl)cccc1COc1cccc(C(=O)C=C(O)C(=O)O)c1 [Example 109]
30 µM | O=C(O)C(O)=CC(=O)c1cccc(COc2ccccc2)c1 [Example 110]
0.5 µM | O=C(O)C(O)=CC(=O)c1cccc(NS(=O)(=O)c2ccc3ccccc3c2)c1 [Example 114]
3.7 µM | O=C(O)C(O)=CC(=O)c1cccc(NS(=O)(=O)c2ccc(C(F)(F)F)cc2Cl)c1 [Example 115]
0.3 µM | N#Cc1ccc(-c2ccccc2)cc1COc1cccc(C(=O)C=C(O)C(=O)O)c1 [Example 116]
0.2 µM | O=C(O)C(O)=CC(=O)c1cccc(NS(=O)(=O)c2cccc(Cl)c2Cl)c1 [Example 118]
0.049 µM | O=C(O)C(O)=CC(=O)c1cccc(NS(=O)(=O)c2cc(Cl)c(Cl)cc2Cl)c1 [Example 119]
4 µM | O=C(NCCc1ccccc1)Nc1cccc(C(=O)C=C(O)C(=O)O)c1 [Example 121]
2 µM | Cc1cccc(C(C)Oc2cccc(C(=O)C=C(O)C(=O)O)c2)c1C#N (stereo not drawn) [Example 122]
0.29 µM | Cc1c(Cl)cccc1S(=O)(=O)Nc1cccc(C(=O)C=C(O)C(=O)O)c1 [Example 123]
28 µM | O=C(O)C(O)=CC(=O)c1cccc(NS(=O)(=O)c2ccc(-c3ccccc3)cc2)c1 [Example 124]
0.17 µM | O=C(O)C(O)=CC(=O)c1cccc(NS(=O)(=O)c2ccc(Cl)c(Cl)c2Cl)c1 [Example 125]
0.3 µM | O=C(O)C(O)=CC(=O)c1cccc(NS(=O)(=O)c2cc(Cl)cc(Cl)c2O)c1 [Example 127]
24 µM | CCOC(=O)c1ccccc1S(=O)(=O)Nc1cccc(C(=O)C=C(O)C(=O)O)c1 [Example 128]
1.6 µM | COc1ccc(Cl)cc1S(=O)(=O)Nc1cccc(C(=O)C=C(O)C(=O)O)c1 [Example 129]
0.14 µM | O=C(O)C(O)=CC(=O)c1cccc(NS(=O)(=O)c2c(Cl)sc(Cl)c2Br)c1 [Example 130]
0.78 µM | O=C(O)C(O)=CC(=O)c1cccc(NS(=O)(=O)c2cccc(Cl)c2)c1 [Example 131]
0.67 µM | O=C(O)C(O)=CC(=O)c1cccc(OCc2cccc3ccccc23)c1 [Example 132]

IC50 | SMILES
3.2 µM | O=C(O)C(O)=CC(=O)c1cccc(OCc2ccc(Cl)c(Cl)c2)c1 [Example 133]
23 µM | O=C(O)C(O)=CC(=O)c1cccc(NS(=O)(=O)CCCCl)c1 [Example 134]
21 µM | O=C(O)C(O)=CC(=O)c1cccc(NS(=O)(=O)c2cc(Cl)c(Oc3ccc([N+](=O)[O-])cc3Cl)c(Cl)c2)c1 [Example 135]
0.2 µM | O=C(O)C(O)=CC(=O)c1cccc(NS(=O)(=O)c2ccc(Cl)c(Cl)c2)c1 [Example 136]
0.9 µM | Cc1ccc(S(=O)(=O)Nc2cccc(C(=O)C=C(O)C(=O)O)c2)cc1Cl [Example 137]
1.1 µM | O=C(O)C(O)=CC(=O)c1cccc(NS(=O)(=O)c2ccc(F)cc2Cl)c1 [Example 138]
1.4 µM | O=C(O)C(O)=CC(=O)c1cccc(OCc2c(Cl)cccc2Cl)c1 [Example 139]
1 µM | O=C(O)C(O)=CC(=O)c1cccc(NS(=O)(=O)c2c(Cl)cc(C(F)(F)F)cc2Cl)c1 [Example 140]
0.56 µM | O=C(O)C(O)=CC(=O)c1cccc(NS(=O)(=O)c2ccc(Cl)c([N+](=O)[O-])c2)c1 [Example 141]
0.4 µM | O=C(O)C(O)=CC(=O)c1cccc(NS(=O)(=O)c2cccc([N+](=O)[O-])c2)c1 [Example 142]
0.45 µM | O=C(O)C(O)=CC(=O)c1cccc(NS(=O)(=O)c2ccc(F)c(Cl)c2)c1 [Example 143]
14 µM | O=C(O)C(O)=CC(=O)c1cccc(S(=O)(=O)Nc2ccccc2)c1 [Example 144]
1.2 µM | O=C(O)C(O)=CC(=O)c1cccc(S(=O)(=O)Nc2ccc(Cl)cc2)c1 [Example 145]
15 µM | Cc1cc(C)c(S(=O)(=O)Nc2cccc(C(=O)C=C(O)C(=O)O)c2)c(C)c1 [Example 146]
1.3 µM | Cc1cc(S(=O)(=O)Nc2cccc(C(=O)C=C(O)C(=O)O)c2)c(C)cc1Cl [Example 147]
0.26 µM | O=C(O)C(O)=CC(=O)c1cccc(NS(=O)(=O)c2c(Cl)cc(Cl)cc2Cl)c1 [Example 148]
0.55 µM | Cc1cc(S(=O)(=O)Nc2cccc(C(=O)C=C(O)C(=O)O)c2)c(Cl)cc1Cl [Example 149]
2.3 µM | Cc1cc(Cl)cc(Cl)c1S(=O)(=O)Nc1cccc(C(=O)C=C(O)C(=O)O)c1 [Example 150]
0.5 µM | O=C(O)C(O)=CC(=O)c1cccc(NS(=O)(=O)c2ccc(Cl)cc2Cl)c1 [Example 151]
20 µM | O=C(O)C(O)=CC(=O)c1cc(Cc2ccccc2)ccc1F [Example 152]
19 µM | O=C(O)C(O)=CC(=O)c1cccc(Cn2nc3ccccc3n2)c1 [Example 153]
30 µM | O=C(O)C(O)=CC(=O)c1cccc(Cn2nnc3ccccc32)c1 [Example 154]
0.2 µM | N#Cc1ccccc1COc1cc(O)cc(C(=O)C=C(O)C(=O)O)c1 [Example 158]
0.1 µM | N#Cc1cccc(Cl)c1COc1cc(O)cc(C(=O)C=C(O)C(=O)O)c1 [Example 160]
5.5 µM | O=C(O)C(O)=CC(=O)c1ccc(O)cc1 [Example 162]

IC50 | SMILES
26 µM | O=C(O)C(O)=CC(=O)c1ccc(F)cc1 [Example 163]
47 µM | CCc1ccc(C(=O)C=C(O)C(=O)O)cc1 [Example 164]
2 µM | Cc1ccc(C(=O)C=C(O)C(=O)O)c(C)c1 [Example 165]
20 µM | O=C(O)C(O)=CC(=O)c1ccc(Cl)cc1 [Example 166]
0.6 µM | Cc1ccc(C(=O)C=C(O)C(=O)O)c(OCCCC#N)c1 [Example 167]
12 µM | N#CCCCOc1cccc(OCCCC#N)c1C(=O)C=C(O)C(=O)O [Example 171]
> 50 µM | COc1cccc(OC)c1C(=O)C=C(O)C(=O)O [Example 172]
21 µM | N#CCCCn1cccc1C(=O)C=C(O)C(=O)O [Example 173]
13.4 µM | N#CCCCCn1cccc1C(=O)C=C(O)C(=O)O [Example 174]
25 µM | O=C(O)C(O)=CC(=O)c1cccn1CC1CCCC1 [Example 175]
29 µM | O=C(O)C(O)=CC(=O)c1cccn1Cc1ccccc1 [Example 176]
25 µM | O=C(O)C(O)=CC(=O)c1cccn1-c1ccc(F)cc1 [Example 177]
17.9 µM | O=C(O)C(O)=CC(=O)c1cccn1CC1CCCCC1 [Example 178]
93 µM | O=C(O)C(O)=CC(=O)c1cccn1Cc1ccc(F)cc1 [Example 180]
30 µM | O=C(O)C(O)=CC(=O)c1cccn1Cc1cccc(F)c1 [Example 181]
30 µM | O=C(O)C(O)=CC(=O)c1cccn1Cc1ccccc1F [Example 182]
32 µM | N#Cc1ccc(Cn2cccc2C(=O)C=C(O)C(=O)O)cc1 [Example 183]
6.7 µM | N#Cc1ccccc1Cn1cccc1C(=O)C=C(O)C(=O)O [Example 184]
24 µM | O=C(O)C(O)=CC(=O)c1cccn1Cc1ccccc1Cl [Example 186]
36 µM | O=C(O)C(O)=CC(=O)c1cccn1CCCc1ccc(F)cc1 [Example 187]
12.7 µM | O=C(O)C(O)=CC(=O)c1cccn1Cc1ccc2ccccc2c1 [Example 188]
28 µM | O=C(O)C(O)=CC(=O)c1cccn1CCCCOc1ccccc1 [Example 189]
10 µM | Cc1ccsc1C(=O)C=C(O)C(=O)O [Example 191]

SMILES | IC50
O=C(O)C(O)=CC(=O)c1cccn1Cc1ccc(O)cc1 [Example 179] | 12.8 µM
O=C(O)C(O)=CC(=O)c1cc(I)cn1Cc1ccc(F)cc1 [Example 190] | 18 µM

Same assay, conditions: Tables IXa-IXc; unit inferred; read-out: HCV (IC50)

IC50 | SMILES
6 µM | O=C(O)C(O)=CC(=O)c1cccc(OCc2cc(-c3ccccc3)on2)c1 [Example 103]
0.17 µM | N#Cc1c(Cl)cccc1COc1cccc(C(=O)C=C(O)C(=O)O)c1 [Example 109]
0.3 µM | N#Cc1ccc(-c2ccccc2)cc1COc1cccc(C(=O)C=C(O)C(=O)O)c1 [Example 116]
0.2 µM | N#Cc1ccccc1COc1cc(O)cc(C(=O)C=C(O)C(=O)O)c1 [Example 158]
0.1 µM | N#Cc1cccc(Cl)c1COc1cc(O)cc(C(=O)C=C(O)C(=O)O)c1 [Example 160]
5.5 µM | O=C(O)C(O)=CC(=O)c1ccc(O)cc1 [Example 162]
2 µM | Cc1ccc(C(=O)C=C(O)C(=O)O)c(C)c1 [Example 165]

SMILES | IC50
O=C(O)C(O)=CC(=O)c1cccn1Cc1ccc(O)cc1 [Example 179] | 12.8 µM
O=C(O)C(O)=CC(=O)c1cc(I)cn1Cc1ccc(F)cc1 [Example 190] | 18 µM
